By melting point is commonly meant the temperature, or range, at which the solid turns liquid.

For data set [1], the system named is C. albicans ATCC MYA-573. Put plainly: Antifungal activity (GI80), growth inhibition in YPD20 medium by absorbance at 600 nm. The note with it: minimum concentration for at least 80% cell growth inhibition, 37° C., absorbance 600 nm; for IC80: Candida albicans, read-out: GI80 (μg/ml) C. albicans ATCC MYA-573. In kind it is cell-based. The method, then:
(§1) The antifungal activity of the compounds of the invention was determined according to the method mentioned below.
(§2) An YPD20 medium (1% yeast extract, 2% peptone, 20% glucose) was used,
(§3) (2) Preparation of Cell Liquid for Inoculation:
(§4) Cells incubated overnight with Sabouraud dextrose agar at 30° C. were suspended in 0.1% Tween 80-added saline, and then added to a concentrated medium (1.33% yeast extract, 2.67% peptone, 13.33% glucose) so that the final cell concentration could be 5×10^3 cells/ml, thereby preparing a cell liquid for inoculation.
(§5) (3) Production of Chemical Dilution Plate:
(§6) A metered sample was dissolved in dimethyl sulfoxide, and a 2-fold dilution series was prepared using dimethyl sulfoxide. A chemical dilution of 2 μl each was added to a flat-bottom 96-well plate with 40% glucose (48 μl) put in each well, thereby producing a chemical dilution plate.
(§7) (4) Inoculation and Cultivation of Cell Liquid:
(§8) The cell liquid (150 μl) prepared in (2) was added to the chemical dilution plate produced in (3), followed by aerobic static cultivation at 37° C.
(§9) (5) Determination of Antifungal Activity (GI80 Value):
(§10) After cultivation for […], the plate was stirred, and its absorbance (600 nm) was measured. Based on the absorbance as the index, the minimum chemical concentration for at least 80% cell growth inhibition relative to the cell growth in the chemical-free well was computed as a GI80 value.

The test system of data set [2] is C. albicans ATCC90028. The description is as above. The following applies: 37° C., absorbance 600 nm; for IC80: Candida albicans, ATCC90028, minimum concentration for at least 80% cell growth inhibition, read-out: GI80 (μg/ml) C. albicans ATCC90028; for GI80 (μg/ml) C. albicans ATCC90028: minimum concentration for at least 80% cell growth inhibition. It counts as cell-based. The method, then:
as §1, §2, §3, §4, §5, §6, §7, §8, §9, §10

The test system of data set [3] is C. glabrata ATCC48435. Described as above. It counts as cell-based. The following applies: 37° C., absorbance 600 nm; for IC80: Nakaseomyces glabratus, ATCC48435, minimum concentration for at least 80% cell growth inhibition, read-out: GI80 (μg/ml) C. glabrata ATCC48435; for GI80 (μg/ml) C. glabrata ATCC48435: minimum concentration for at least 80% cell growth inhibition. The method, then:
as §1, §2, §3, §4, §5, §6, §7, §8, §9, §10

SMILES strings stand for the structures. Values after ≈ are worked out from the molar mass of the structure shown.

The compound `Cc1c(Br)c(N2CC[C@H](N(C)C)C2)c2oc(C3CC3)nc2c1C#N` had a melting point of 82 to 86 °C.

For the compound `Cc1c(-c2ccccc2)c(N2CC[C@H](N(C)C)C2)c2oc(C(C)C)nc2c1C#N.Cl`, the melting point was 168 to 170 °C (dec.).

As for `Cc1c(-c2ccccc2)c(N2CC[C@H](N(C)C)C2)c2oc(N3CC(CC(=O)O)C3)nc2c1C#N`, the melting point lay within 125 to 128 °C.

Compound `Cc1c(-c2ccccc2)c(C2=CC(N(C)C)CC2)c2oc(C(C)(C)C)nc2c1C#N` (stereo not drawn) [Example 3, 2-tert-Butyl-7-[3-(dimethylamino)cyclopent-1-en-1-yl]-5-methyl-6-phenyl-1,3-benzoxazole-4-carbonitrile] had a melting point of 114 to 116 °C.

Regarding `Cc1c(-c2ccccc2)c(C2=CC(N(C)C)CC2)c2oc(C3CC3)nc2c1C#N` (stereo not drawn) [Example 8, 2-Cyclopropyl-7-(3-dimethylaminocyclopent-1-en-1-yl)-5-methyl-6-phenyl-1,3-benzoxazole-4-carbonitrile], the melting point fell in the range of 144 to 146 °C.

For `Cc1c(-c2ccccc2)c(N2CC(N(C)C)C2)c2oc(C(C)(C)C)nc2c1C#N` [Example 15, 2-Tert-butyl-5-methyl-7-(3-dimethylaminoazetidin-1-yl)-6-phenyl-1,3-benzoxazole-4-carbonitrile], the melting point lay within 211 to 212 °C.

`Cc1c(-c2ccco2)c(N2CC[C@H](N(C)C)C2)c2oc(C3CC3)nc2c1C#N` [Example 18, 2-Cyclopropyl-7-[(3S)-3-(dimethylamino)pyrrolidin-1-yl]-6-(2-furyl)-5-methyl-1,3-benzoxazole-4-carbonitrile] displayed a melting point of 158 to 159 °C.

For the compound `Cc1c(-c2ccccn2)c(N2CC[C@H](N(C)C)C2)c2oc(C3CC3)nc2c1C#N` [Example 20, 2-Cyclopropyl-7-[(3S)-3-(dimethylamino)pyrrolidin-1-yl]-5-methyl-6-(pyridin-2-yl)-1,3-benzoxazole-4-carbonitrile], the melting point lay in the range of 150 to 151 °C.

Take `Cc1c(-c2cnccn2)c(N2CC[C@H](N(C)C)C2)c2oc(C3CC3)nc2c1C#N` [Example 21, 2-Cyclopropyl-7-[(3S)-3-(dimethylamino)pyrrolidin-1-yl]-5-methyl-6-(pyrazin-2-yl)-1,3-benzoxazole-4-carbonitrile]: the melting point lay within 157 to 159 °C.

`CC(=O)c1c(C)c(C#N)c2nc(C3CC3)oc2c1N1CC[C@H](N(C)C)C1` [Example 26, 6-Acetyl-2-cyclopropyl-7-[(3S)-3-(dimethylamino)pyrrolidin-1-yl]-5-methyl-1,3-benzoxazole-4-carbonitrile] showed a melting point of 142 °C.

For `CNC(=O)c1nc2c(C#N)c(C)c(-c3ccccc3)c(N3CC[C@H](N(C)C)C3)c2o1` [Example 39, 4-Cyano-7-[(3S)-3-(dimethylamino)pyrrolidin-1-yl]-N,5-dimethyl-6-phenyl-1,3-benzoxazole-2-carboxamide], the melting point lay in the range of 214 to 216 °C.

As to `Cc1c(-c2ccccc2)c(N2CC[C@@H](N(C)C)C2)c2oc(C(=O)N(C)C)nc2c1C#N` [Example 40-2, 4-Cyano-N,N,5-trimethyl-7-[(3R)-3-(dimethylamino)pyrrolidin-1-yl]-6-phenyl-1,3-benzoxazole-2-carboxamide], the melting point was 67 to 70 °C.

`CN[C@@H]1CCN(c2c(-c3ccccc3)c(C)c(C#N)c3nc(C(=O)N(C)C)oc23)C1` [Example 40-3, 4-Cyano-N,N,5-trimethyl-7-[(3R)-3-(methylamino)pyrrolidin-1-yl]-6-phenyl-1,3-benzoxazole-2-carboxamide] yielded a melting point of 145 to 148 °C.

In turn, `Cc1cc2c(c(N3CC[C@H](N(C)C)C3)c1-c1ccccc1)OC(C#N)(C(=O)N1CCCCC1)N2` (stereo partly drawn) [Example 43, 7-[(3S)-3-(dimethylamino)pyrrolidin-1-yl]-5-methyl-6-phenyl-2-(piperidin-1-ylcarbonyl)-1,3-benzoxazole-2-carbonitrile] came in with a melting point of 170 to 173 °C.

For `Cc1c(-c2ccccc2)c(N2CC[C@H](N(C)C)C2)c2oc(C(=O)N(C)CCc3ccccc3)nc2c1C#N` [Example 46, 4-Cyano-7-[(3S)-3-(dimethylamino)pyrrolidin-1-yl]-N,5-dimethyl-6-phenyl-N-(2-phenylethyl)-1,3-benzoxazole-2-carboxamide], the melting point was in the range of 138 to 141 °C.

Consider `Cc1c(-c2cc(F)ccc2F)c(N2CC[C@H](N(C)C)C2)c2oc(C3CC3)nc2c1C#N` [Example 144-5, 2-Cyclopropyl-6-(2,5-difluorophenyl)-7-[(3S)-3-(dimethylamino)pyrrolidin-1-yl]-5-methyl-1,3-benzoxazole-4-carbonitrile], for which the IC80 came to 0.25 µg/mL (≈ 0.592 µM) in data set [1], 0.125 µg/mL (≈ 0.296 µM) in data set [2] and 0.032 µg/mL (≈ 0.0757 µM) in data set [3].

With `COc1cccc(-c2c(C)c(C#N)c3nc(C4CC4)oc3c2N2CC[C@H](N(C)C)C2)c1` [Example 144-11, 2-Cyclopropyl-7-[(3S)-3-(dimethylamino)pyrrolidin-1-yl]-6-(3-methoxyphenyl)-5-methyl-1,3-benzoxazole-4-carbonitrile], the IC80 in data set [1] amounted to 0.5 µg/mL (≈ 1.2 µM); in data set [2], 0.25 µg/mL (≈ 0.6 µM); in data set [3] it was 0.125 µg/mL (≈ 0.3 µM).

`CN[C@H]1CCN(c2c(-c3cccs3)c(C)c(C#N)c3nc(C(=O)N(C)C)oc23)C1` [Example 145, 4-Cyano-N,N,5-trimethyl-7-[(3S)-3-(methylamino)pyrrolidin-1-yl]-6-(thiophen-2-yl)-1,3-benzoxazole-2-carboxamide]: the values for the IC80 in data set [1], in data set [2] and in data set [3] were 0.5 µg/mL (≈ 1.22 µM), 0.5 µg/mL (≈ 1.22 µM) and 0.125 µg/mL (≈ 0.305 µM), respectively.

As for `CN[C@H]1CCN(c2c(-c3cccc(Cl)c3)c(C)c(C#N)c3nc(C(=O)N(C)C)oc23)C1` [Example 146, 6-(3-Chlorophenyl)-4-cyano-N,N,5-trimethyl-7-[(3S)-3-(methylamino)pyrrolidin-1-yl]-1,3-benzoxazole-2-carboxamide], the values for the IC80 in data set [1], in data set [2] and in data set [3] were 0.25 µg/mL (≈ 0.571 µM), 0.125 µg/mL (≈ 0.285 µM) and 0.125 µg/mL (≈ 0.285 µM), respectively.

For `CN[C@H]1CCN(c2c(-c3cccc(C)c3)c(C)c(C#N)c3nc(C(=O)N(C)C)oc23)C1` [Example 146-2, 4-Cyano-N,N,5-trimethyl-7-[(3S)-3-(methylamino)pyrrolidin-1-yl]-6-(3-methylphenyl)-1,3-benzoxazole-2-carboxamide], the results for the IC80 in data set [1], in data set [2] and in data set [3] were 0.25 µg/mL (≈ 0.599 µM), 0.125 µg/mL (≈ 0.299 µM) and 0.063 µg/mL (≈ 0.151 µM), respectively.

`Cc1c(-n2cccc2)c(N2CC[C@H](N(C)C)C2)c2oc(C3CC3)nc2c1C#N` [Example 151, 2-Cyclopropyl-7-[(3S)-3-(dimethylamino)pyrrolidin-1-yl]-5-methyl-6-(pyrrol-1-yl)-1,3-benzoxazole-4-carbonitrile]: the IC80 came out at 1 µg/mL (≈ 2.66 µM) in data set [1], 2 µg/mL (≈ 5.33 µM) in data set [2] and 0.25 µg/mL (≈ 0.666 µM) in data set [3].

Consider `Cc1c(-c2ccccc2)c(N2CCC[C@H]2CN(C)C)c2oc(C3CC3)nc2c1C#N` [Example 154, 2-Cyclopropyl-7-{(2S)-2-[(dimethylamino)methyl]pyrrolidin-1-yl}-5-methyl-6-phenyl-1,3-benzoxazole-4-carbonitrile], for which the IC80 came out at 1 µg/mL (≈ 2.5 µM) in data set [1], 1 µg/mL (≈ 2.5 µM) in data set [2] and 0.25 µg/mL (≈ 0.624 µM) in data set [3].

For the compound `CNC[C@H]1CCN1c1c(-c2ccccc2)c(C)c(C#N)c2nc(C(=O)N(C)C)oc12` [Example 155], in data set [1], the “GI80 (μg/ml) C. albicans ATCC MYA-573” value worked out at 2 µg/mL (≈ 4.96 µM). Besides, the “GI80 (μg/ml) C. albicans ATCC90028” value in data set [2] was determined as 0.5 µg/mL (≈ 1.24 µM). The “GI80 (μg/ml) C. glabrata ATCC48435” value in data set [3] came to 0.125 µg/mL (≈ 0.31 µM).

Regarding `CNC1=CC(c2c(-c3ccccc3)c(C)c(C#N)c3nc(C(=O)N(C)C)oc23)CC1` (stereo not drawn) [Example 156-1, 4-Cyano-N,N,5-trimethyl-7-[3-(methylamino)cyclopent-2-enyl]-6-phenyl-1,3-benzoxazole-2-carboxamide], the results for the IC80 in data set [1], in data set [2] and in data set [3] were 0.25 µg/mL (≈ 0.624 µM), 0.25 µg/mL (≈ 0.624 µM) and 0.063 µg/mL (≈ 0.157 µM), respectively.

`CN[C@H]1CCN(c2c(-c3csc(C)n3)c(C)c(C#N)c3nc(C(=O)N(C)C)oc23)C1` [Example 158, 4-Cyano-N,N,5-trimethyl-7-[(3S)-3-(methylamino)pyrrolidin-1-yl]-6-(2-methyl-1,3-thiazol-4-yl)-1,3-benzoxazole-2-carboxamide]: in data set [1], the “GI80 (μg/ml) C. albicans ATCC MYA-573” value is 2 µg/mL (≈ 4.71 µM). Moreover, the “GI80 (μg/ml) C. albicans ATCC90028” value in data set [2] came out at 0.5 µg/mL (≈ 1.18 µM). The “GI80 (μg/ml) C. glabrata ATCC48435” value in data set [3] turned out to be 0.25 µg/mL (≈ 0.589 µM).

As for `OC(Cn1cncn1)(Cn1cncn1)c1ccc(F)cc1F` [FCZ, Fluconazole, reference compound], the IC80 was above 4 µg/mL in data set [1], 0.25 µg/mL (≈ 0.816 µM) in data set [2] and above 4 µg/mL in data set [3].

On to `CCC(C)n1ncn(-c2ccc(N3CCN(c4ccc(OCC5COC(Cn6cncn6)(c6ccc(Cl)cc6Cl)O5)cc4)CC3)cc2)c1=O` (stereo not drawn) [ITZ, Itraconazole, reference compound], for which the “GI80 (μg/ml) C. albicans ATCC MYA-573” value in data set [1] is 0.125 µg/mL (≈ 0.177 µM). Further, the “GI80 (μg/ml) C. albicans ATCC90028” value in data set [2] was below 0.016 µg/mL. The “GI80 (μg/ml) C. glabrata ATCC48435” value in data set [3] stood at 0.25 µg/mL (≈ 0.354 µM).

The values are drawn from patent US7737166B2, “Antifungal bicyclic hetero ring compounds” (Daiichi Sankyo Company, Limited, priority 2005, dated 2010).
